In patent US20050075388A1 (published 2005):

Row | SMILES | melting point
1 | CCOC1Oc2c(c(=O)oc3ccccc23)C1c1c(O)c2ccccc2oc1=O (stereo not shown) | 166 to 169 °C
2 | O=c1oc2ccccc2c(O)c1C(CC(c1c(O)c2ccccc2oc1=O)c1c(O)c2ccccc2oc1=O)c1c(O)c2ccccc2oc1=O | 286 to 288 °C
3 | O=c1oc2cc(O)c(O)cc2c(O)c1C1=CCOc2oc3ccccc3c(=O)c21 | 258 to 260 °C
4 | O=c1oc2c(O)c(O)ccc2c(O)c1C(CCCC(c1c(O)c2ccc(O)c(O)c2oc1=O)c1c(O)c2ccc(O)c(O)c2oc1=O)c1c(O)c2ccc(O)c(O)c2oc1=O | > 300 °C
5 | O=c1oc2cc(O)cc(O)c2c(O)c1C1=CCOc2oc3ccccc3c(=O)c21 | 254 to 256 °C
6 | O=c1oc2cc(O)ccc2c(O)c1C(CCCC(c1c(O)c2ccc(O)cc2oc1=O)c1c(O)c2ccc(O)cc2oc1=O)c1c(O)c2ccc(O)cc2oc1=O | 299 to 302 °C
7 | O=c1oc2cc(O)c(O)cc2c(O)c1C(CCCC(c1c(O)c2cc(O)c(O)cc2oc1=O)c1c(O)c2cc(O)c(O)cc2oc1=O)c1c(O)c2cc(O)c(O)cc2oc1=O | > 300 °C
8 | O=c1oc2ccccc2c(O)c1C(CCCC(c1c(O)c2ccccc2oc1=O)c1c(O)c2ccccc2oc1=O)c1c(O)c2ccccc2oc1=O | 291 to 294 °C
9 | O=c1oc2ccccc2c(O)c1C1c2ccccc2Oc2c1c(=O)oc1ccccc21 (stereo not shown) | > 255 °C (dec.)
10 | O=c1oc2cc(O)cc(O)c2c(O)c1C1c2ccccc2Oc2c1c(=O)oc1cc(O)cc(O)c21 (stereo not shown) | > 300 °C
11 | O=c1oc2cc(O)cc(O)c2c(O)c1C(CCCC(c1c(O)c2c(O)cc(O)cc2oc1=O)c1c(O)c2c(O)cc(O)cc2oc1=O)c1c(O)c2c(O)cc(O)cc2oc1=O | > 300 °C

Next, values leading:

Row | melting point | SMILES
12 | > 300 °C | O=CC(c1c(O)c2ccc(O)cc2oc1=O)c1c(O)c2ccc(O)cc2oc1=O
13 | > 300 °C | O=Cc1ccccc1C(c1c(O)c2ccc(O)cc2oc1=O)c1c(O)c2ccc(O)cc2oc1=O
14 | > 300 °C | COC1Oc2c(c(=O)oc3cc(O)ccc23)C1c1c(O)c2ccc(O)cc2oc1=O (stereo not shown)
15 | > 300 °C | O=Cc1ccccc1C(c1c(O)c2ccc(O)c(O)c2oc1=O)c1c(O)c2ccc(O)c(O)c2oc1=O
16 | > 300 °C | O=c1oc2cc(O)ccc2c(O)c1-c1coc2c1c(=O)oc1cc(O)ccc12
